Inconclusive results and toxic doses are left out. Cut-off read from the data, not from the text of the source: active = T/C of 150% or more; inactive = T/C below 125%.
Test system: L1210 leukemia ip in BDF1 mice, survival T/C
Assay: NCI In Vivo Anticancer Drug Screen. Data for tumor model L1210 Leukemia (intraperitoneal) in B6D2F1 (BDF1) mice
Details: endpoint: mean survival time, higher = longer survival
Procedure, shortened: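 Tumor cells were implanted, animals were treated, and survival was followed. The result divides the treated measurement by the vehicle-control measurement.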

Measured: T/C

COc1cc(C[C@H]2c3cc(OC)c(OC)cc3CCN2C)c(Oc2cc3c(cc2OC)-c2c(OC)c(OC)cc4c2[C@H](C3)N(C)CC4)cc1OC
inactive: dose: 12.0 mg/kg/injection, schedule: Q01DX005 (ip), vehicle: other 110 % of control | dose: 12.0 mg/kg/injection, schedule: Q01DX009 (ip), vehicle: other 97 % of control | dose: 18.0 mg/kg/injection, schedule: Q04DX003 (ip), vehicle: other 107 % of control | dose: 24.0 mg/kg/injection, schedule: Q01DX005 (ip), vehicle: other 106 % of control | dose: 24.0 mg/kg/injection, schedule: Q01DX009 (ip), vehicle: other 105 % of control | dose: 25.0 mg/kg/injection, schedule: Q01DX009 (ip), vehicle: clinical formulation 103 % of control | dose: 27.0 mg/kg/injection, schedule: Q08DX002 (ip), vehicle: other 103 % of control | dose: 36.0 mg/kg/injection, schedule: Q04DX003 (ip), vehicle: other 103 % of control | dose: 48.0 mg/kg/injection, schedule: Q01DX005 (ip), vehicle: other 110 % of control | dose: 48.0 mg/kg/injection, schedule: Q01DX009 (ip), vehicle: other 108 % of control | dose: 50.0 mg/kg/injection, schedule: Q01DX009 (ip), vehicle: clinical formulation 100 % of control | dose: 54.0 mg/kg/injection, schedule: Q08DX002 (ip), vehicle: other 106 % of control | dose: 72.0 mg/kg/injection, schedule: Q04DX003 (ip), vehicle: other 108 % of control | dose: 80.0 mg/kg/injection, schedule: Q01DX015 (ip), vehicle: carboxymethylcellulose (CMC) 88 % of control | dose: 96.0 mg/kg/injection, schedule: Q01DX005 (ip), vehicle: other 108 % of control | dose: 96.0 mg/kg/injection, schedule: Q01DX009 (ip), vehicle: other 105 % of control | dose: 100.0 mg/kg/injection, schedule: Q01DX009 (ip), vehicle: clinical formulation 102 % of control | dose: 100.0 mg/kg/injection, schedule: Q04DX002 (ip), vehicle: Klucel (hydroxypropylcellulose) (HPC) 104 % of control | dose: 108.0 mg/kg/injection, schedule: Q08DX002 (ip), vehicle: other 102 % of control | dose: 144.0 mg/kg/injection, schedule: Q04DX003 (ip), vehicle: other 103 % of control | dose: 160.0 mg/kg/injection, schedule: Q01DX015 (ip), vehicle: carboxymethylcellulose (CMC) 93 % of control | dose: 192.0 mg/kg/injection, schedule: Q01DX005 (ip), vehicle: other 105 % of control | dose: 192.0 mg/kg/injection, schedule: Q01DX009 (ip), vehicle: other 101 % of control | dose: 200.0 mg/kg/injection, schedule: Q04DX002 (ip), vehicle: Klucel (hydroxypropylcellulose) (HPC) 86 % of control | dose: 216.0 mg/kg/injection, schedule: Q08DX002 (ip), vehicle: other 95 % of control | dose: 288.0 mg/kg/injection, schedule: Q04DX003 (ip), vehicle: other 97 % of control | dose: 400.0 mg/kg/injection, schedule: Q04DX002 (ip), vehicle: Klucel (hydroxypropylcellulose) (HPC) 101 % of control

C=COC(=O)NC(C(=O)O)C(C)C (stereo not given)
inactive: dose: 100.0 mg/kg/injection, schedule: Q01DX001 (ip), vehicle: saline 96 % of control

C/C(=N\NC(=O)C1CCCO1)c1cccc2ccccc12 (stereo not given)
inactive: dose: 12.5 mg/kg/injection, schedule: Q01DX009 (ip), vehicle: Klucel (hydroxypropylcellulose) (HPC) 97 % of control | dose: 25.0 mg/kg/injection, schedule: Q01DX009 (ip), vehicle: Klucel (hydroxypropylcellulose) (HPC) 114 % of control

From PubChem BioAssay AID248 (DTP/NCI, 2004)
